Measured values as given in patent US20040170959A1, “Methods for identifying antiviral oligonucleotides” (priority 2002, published 2004).

Legend:
[1] = human, in vivo; cited from earlier work
Hepatitis C virus (HCV) = details: prolonged therapy; cited from earlier work
Hep2 cells = details: uninfected cells treated 7 days

Nc1nc(O)c2ncn(COC(CO)CO)c2n1 [ganciclovir]
neutropenia and thrombocytopenia, share of patients treated [1]: 40%

O=c1[nH]c(=O)n([C@H]2C[C@H](O)[C@@H](CO)O2)cc1I [idoxuridine]
allergic reactions, share of patients treated [1]: 35%

interferon alpha
share of patients in whom therapy is effective (Hepatitis C virus (HCV)): about 40% of patients

NC(=O)c1ncn([C@@H]2O[C@H](CO)[C@@H](O)[C@H]2O)n1 [Ribavirin]
toxicity in Hep2 cells (Hep2 cells): significantly toxic
